Measurements: patent US20250320213A1, “Nitrogen-Containing Heterocyclic Compounds” (Pfizer Inc., priority 2024, published 2025)

What was measured:
[1] = system: CCL17 secretion in peripheral human whole blood; assay: Human Whole Blood (HWB) CCL17 TR-FRET Assay (IL-13 stimulated CCL17 secretion); format: cell-based; conditions: inhibition of CCL17 secretion in human whole blood, 10 ng/mL IL13, 48 hours
How it was run: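 Compounds are titrated (11 points, 3-fold, duplicate) into fresh heparinized human whole blood and held 2 h at 37 °C before IL-13 challenge (10 ng/mL final). After 48 h at 37 °C, serum CCL17 is measured by TR-FRET sandwich assay and IC50 values are calculated.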

STAT6 = molecular target: T1, STAT6 (Homo sapiens, UniProt P42226); assay: STAT6 Reporter Luciferase Assay (IL-13 stimulated HaCaT keratinocyte NanoLuc reporter cells); format: cell-based; conditions: STAT6 NanoLuc luciferase reporter, IL-13 stimulated HaCaT keratinocyte cells; read-out: Reporter EC50
T1 construct: stably transfected HaCaT keratinocyte cell line, which expresses NanoLuc luciferase reporter gene under the transcriptional control of the STAT6 responsive promoter; endogenous in cells; host or cells: HaCaT keratinocyte reporter cell line (stably transfected with a NanoLuc reporter)
T1 sequence (P42226 1-847): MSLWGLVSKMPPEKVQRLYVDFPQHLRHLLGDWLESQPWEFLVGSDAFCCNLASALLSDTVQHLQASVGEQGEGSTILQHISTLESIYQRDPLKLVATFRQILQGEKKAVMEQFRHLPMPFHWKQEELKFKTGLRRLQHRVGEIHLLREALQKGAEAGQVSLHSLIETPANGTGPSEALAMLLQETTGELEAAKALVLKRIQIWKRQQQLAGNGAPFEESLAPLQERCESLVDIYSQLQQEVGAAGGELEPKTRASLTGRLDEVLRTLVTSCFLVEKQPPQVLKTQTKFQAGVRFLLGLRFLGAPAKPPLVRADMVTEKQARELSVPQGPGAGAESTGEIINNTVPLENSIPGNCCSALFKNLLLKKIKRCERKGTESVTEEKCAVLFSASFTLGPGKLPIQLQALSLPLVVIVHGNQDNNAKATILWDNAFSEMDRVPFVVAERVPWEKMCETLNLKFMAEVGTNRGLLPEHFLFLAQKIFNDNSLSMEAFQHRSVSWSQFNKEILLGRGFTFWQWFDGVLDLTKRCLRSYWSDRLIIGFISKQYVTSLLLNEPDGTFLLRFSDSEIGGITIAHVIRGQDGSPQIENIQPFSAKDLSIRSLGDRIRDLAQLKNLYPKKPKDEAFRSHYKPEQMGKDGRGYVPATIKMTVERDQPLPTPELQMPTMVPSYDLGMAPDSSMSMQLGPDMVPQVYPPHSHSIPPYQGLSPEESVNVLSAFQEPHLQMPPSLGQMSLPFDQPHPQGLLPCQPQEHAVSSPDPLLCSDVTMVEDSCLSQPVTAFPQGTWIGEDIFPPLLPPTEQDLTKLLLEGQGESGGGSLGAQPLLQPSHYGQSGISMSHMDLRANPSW
How it was run: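 HaCaT cells stably carrying a NanoLuc reporter driven by the STAT6-responsive IL-13Ra2 promoter were preincubated with compounds for 2 h at 37 °C in 2% FBS medium. Cells were then stimulated with 0.12 nM IL-13 for 4 h, and luminescence was read after Nano-Glo substrate. Compounds ran as 11-point 4-fold dilutions in duplicate.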

SMILES	IC50 ([1]; Homo sapiens, 48 h)	EC50 (STAT6)	IC50 [1]
CN(C)C(=O)Nc1ccc(CNC(=O)c2nn(C)c3c2CN(c2ccc(C(=O)N(C)C)cn2)CC3)cc1 [Example 14, 5-(5-(dimethylcarbamoyl)pyridin-2-yl)-N-(4-(3,3-dimethylureido)benzyl)-1-methyl-4,5,6,7-tetrahydro-1H-pyrazolo[4,3-c]pyridine-3-carboxamide]	260 nM	29 nM	
CNC(=O)c1ccc(CNC(=O)c2nn(C)c3c2CN(c2ccc(C(=O)N(C)C)cn2)CC3)cc1 [Example 15, 5-(5-(dimethylcarbamoyl)pyridin-2-yl)-1-methyl-N-(4-(methylcarbamoyl)benzyl)-4,5,6,7-tetrahydro-1H-pyrazolo[4,3-c]pyridine-3-carboxamide]	1160 nM	159 nM	
CNC(=O)c1ccc(CNC(=O)c2nc(C3CC3)n3c2CN(c2ccc(C(=O)N(C)C)cn2)CC3)cc1 [Example 16, 3-cyclopropyl-7-(5-(dimethylcarbamoyl)pyridin-2-yl)-N-(4-(methylcarbamoyl)benzyl)-5,6,7,8-tetrahydroimidazo[1,5-a]pyrazine-1-carboxamide]	791 nM	261 nM	
CN(C)C(=O)Nc1ccc(CNC(=O)c2ncn3c2CN(c2ccc(C(=O)N(C)C)cn2)CC3)cc1 [Example 17, 7-(5-(dimethylcarbamoyl)pyridin-2-yl)-N-(4-(3,3-dimethylureido)benzyl)-5,6,7,8-tetrahydroimidazo[1,5-a]pyrazine-1-carboxamide]	291 nM	322 nM	
CN(C)C(=O)Nc1ccc(CNC(=O)c2n[nH]c3c2CN(c2ccc(C(=O)N(C)C)cn2)CC3)cc1 [Example 18, 5-(5-(Dimethylcarbamoyl)pyridin-2-yl)-N-(4-(3,3-dimethylureido)benzyl)-4,5,6,7-tetrahydro-1H-pyrazolo[4,3-c]pyridine-3-carboxamide]	1380 nM	1420 nM	
CN(C)C(=O)Nc1ccc(CNC(=O)c2c3c(nn2C2CC2)CCN(c2ccc(C(=O)N(C)C)cn2)C3)cc1 [Example 19, 2-cyclopropyl-5-(5-(dimethylcarbamoyl)pyridin-2-yl)-N-(4-(3,3-dimethylureido)benzyl)-4,5,6,7-tetrahydro-2H-pyrazolo[4,3-c]pyridine-3-carboxamide]	3360 nM	> 10000 nM	
CN(C)C(=O)Nc1ccc(CNC(=O)c2nn(C3(C)CC3)c3c2CN(c2ccc(C(=O)N(C)C)cn2)CC3)cc1 [Example 20, 5-(5-(dimethylcarbamoyl)pyridin-2-yl)-N-(4-(3,3-dimethylureido)benzyl)-1-(1-methylcyclopropyl)-4,5,6,7-tetrahydro-1H-pyrazolo[4,3-c]pyridine-3-carboxamide]	72 nM	6 nM	
CCn1nc(C(=O)NCc2ccc(-c3ncc[nH]3)cc2)c2c1CCN(c1ccc(C(=O)N(C)C)cn1)C2 [Example 21, N-(4-(1H-imidazol-2-yl)benzyl)-5-(5-(dimethylcarbamoyl)pyridin-2-yl)-1-ethyl-4,5,6,7-tetrahydro-1H-pyrazolo[4,3-c]pyridine-3-carboxamide]	217 nM	33 nM	
CN(C)C(=O)Nc1ccc(CNC(=O)c2nc(C(F)(F)F)n3c2CN(c2ccc(C(=O)N(C)C)cn2)CC3)cc1 [Example 22, 7-(5-(dimethylcarbamoyl)pyridin-2-yl)-N-(4-(3,3-dimethylureido)benzyl)-3-(trifluoromethyl)-5,6,7,8-tetrahydroimidazo[1,5-a]pyrazine-1-carboxamide]	54 nM	21 nM	
CCn1nc(C(=O)NCc2ccc(NC(=O)N(C)C)cc2)c2c1CCN(c1ccc(-c3ncnn3C)cn1)C2 [Example 23, N-(4-(3,3-Dimethylureido)benzyl)-1-ethyl-5-(5-(1-methyl-1H-1,2,4-triazol-5-yl)pyridin-2-yl)-4,5,6,7-tetrahydro-1H-pyrazolo[4,3-c]pyridine-3-carboxamide]	62 nM	6 nM	
CN(C)C(=O)Nc1ccc(CNC(=O)c2nnn3c2CN(c2ccc(C(=O)N(C)C)cn2)CC3)cc1 [Example 24, 5-(5-(dimethylcarbamoyl)pyridin-2-yl)-N-(4-(3,3-dimethylureido)benzyl)-4,5,6,7-tetrahydro-[1,2,3]triazolo[1,5-a]pyrazine-3-carboxamide]	346 nM	384 nM	
CN(C)C(=O)Nc1ccc(CNC(=O)c2csc3c2CN(c2ccc(C(=O)N(C)C)cn2)CC3)cc1 [Example 25, 5-(5-(dimethylcarbamoyl)pyridin-2-yl)-N-(4-(3,3-dimethylureido)benzyl)-4,5,6,7-tetrahydrothieno[3,2-c]pyridine-3-carboxamide]	1490 nM	164 nM	
CC(C)n1nc(C(=O)NCc2ccc(NC(=O)N(C)C)cc2)c2c1CCN(c1ccc(-c3ncnn3C)cn1)C2 [Example 27, N-(4-(3,3-dimethylureido)benzyl)-1-isopropyl-5-(5-(1-methyl-1H-1,2,4-triazol-5-yl)pyridin-2-yl)-4,5,6,7-tetrahydro-1H-pyrazolo[4,3-c]pyridine-3-carboxamide]	91 nM	6 nM	
CN(C)C(=O)Nc1ccc(CNC(=O)c2noc3c2CN(c2ccc(C(=O)N(C)C)cn2)CC3)cc1 [Example 28, 5-(5-(dimethylcarbamoyl)pyridin-2-yl)-N-(4-(3,3-dimethylureido)benzyl)-4,5,6,7-tetrahydroisoxazolo[4,5-c]pyridine-3-carboxamide]	313 nM	46 nM	
CN(C)C(=O)Nc1ccc(CNC(=O)c2cnn3c2CN(c2ccc(C(=O)N(C)C)cn2)CC3)cc1 [Example 29, 5-(5-(dimethylcarbamoyl)pyridin-2-yl)-N-(4-(3,3-dimethylureido)benzyl)-4,5,6,7-tetrahydropyrazolo[1,5-a]pyrazine-3-carboxamide]	878 nM	2230 nM	
CCn1nc(C(=O)NCc2ccc(NC(=O)N(C)C)cc2)c2c1CCN(c1ccc(-c3nccn3C)cn1)C2 [Example 30, N-(4-(3,3-Dimethylureido)benzyl)-1-ethyl-5-(5-(1-methyl-1H-imidazol-2-yl)pyridin-2-yl)-4,5,6,7-tetrahydro-1H-pyrazolo[4,3-c]pyridine-3-carboxamide]	87 nM	5 nM	
CN(C)C(=O)Nc1ccc(CNC(=O)c2nn(CC(F)(F)F)c3c2CN(c2ccc(C(=O)N(C)C)cn2)CC3)cc1 [Example 31, 5-(5-(dimethylcarbamoyl)pyridin-2-yl)-N-(4-(3,3-dimethylureido)benzyl)-1-(2,2,2-trifluoroethyl)-4,5,6,7-tetrahydro-1H-pyrazolo[4,3-c]pyridine-3-carboxamide]	85 nM	7 nM	
CC(C)c1nc(C(=O)NCc2ccc(NC(=O)N(C)C)cc2)c2n1CCN(c1ccc(C(=O)N(C)C)cn1)C2 [Example 32, 7-(5-(dimethylcarbamoyl)pyridin-2-yl)-N-(4-(3,3-dimethylureido)benzyl)-3-isopropyl-5,6,7,8-tetrahydroimidazo[1,5-a]pyrazine-1-carboxamide]	40 nM	9 nM	
CC(C)n1nc(C(=O)NCc2ccc(NC(=O)N(C)C)cc2)c2c1CCN(c1ccc(C(=O)N3Cc4cccnc4C3)cn1)C2 [Example 33, 5-(5-(6,7-dihydro-5H-pyrrolo[3,4-b]pyridine-6-carbonyl)pyridin-2-yl)-N-(4-(3,3-dimethylureido)benzyl)-1-isopropyl-4,5,6,7-tetrahydro-1H-pyrazolo[4,3-c]pyridine-3-carboxamide]	35 nM	2 nM	
CC(C)n1nc(C(=O)NCc2ccc(NC(=O)N(C)C)cc2)c2c1CCN(c1ncc(-c3nccn3C)cn1)C2 [Example 34, N-(4-(3,3-Dimethylureido)benzyl)-1-isopropyl-5-(5-(1-methyl-1H-imidazol-2-yl)pyrimidin-2-yl)-4,5,6,7-tetrahydro-1H-pyrazolo[4,3-c]pyridine-3-carboxamide]	71 nM	8 nM	
CC(C)n1nc(C(=O)NCc2ccc(NC(=O)N(C)C)cc2)c2c1CCN(c1ncc(C(=O)N(C)C)cn1)C2 [Example 35, 5-(5-(Dimethylcarbamoyl)pyrimidin-2-yl)-N-(4-(3,3-dimethylureido)benzyl)-1-isopropyl-4,5,6,7-tetrahydro-1H-pyrazolo[4,3-c]pyridine-3-carboxamide]		9 nM	47 nM
